What was measured:
[1] = Selectivity index, ratio of IC50 for PHA-stimulated human PBMC to IC50 for human LS174 cells
[2] = Selectivity index, ratio of IC50 for human PBMC to IC50 for human LS174 cells
PC-3 [3] = assay: Selectivity index, ratio of IC50 for human PBMC to IC50 for human PC3 cells
PC-3 [4] = assay: Selectivity index, ratio of IC50 for PHA-stimulated human PBMC to IC50 for human PC3 cells
MCF7 [5] = assay: Selectivity index, ratio of IC50 for PHA-stimulated human PBMC to IC50 for human MCF7 cells
MCF7 [6] = assay: Selectivity index, ratio of IC50 for human PBMC to IC50 for human MCF7 cells
K562 [7] = assay: Selectivity index, ratio of IC50 for PHA-stimulated human PBMC to IC50 for human K562 cells
K562 [8] = assay: Selectivity index, ratio of IC50 for human PBMC to IC50 for human K562 cells
[9] = Selectivity index, ratio of IC50 for PHA-stimulated human PBMC to IC50 for human Fem-X cells; format: functional
[10] = Selectivity index, ratio of IC50 for human PBMC to IC50 for human Fem-X cells
HeLa [11] = assay: Selectivity index, ratio of IC50 for PHA-stimulated human PBMC to IC50 for human HeLa cells
HeLa [12] = assay: Selectivity index, ratio of IC50 for human PBMC to IC50 for human HeLa cells
PBMC [13] = assay: Cytotoxicity against human PBMC assessed as decrease in cell survival after 72 hrs by MTT assay; format: cell-based
PBMC [14] = assay: Cytotoxicity against PHA-stimulated human PBMC assessed as decrease in cell survival after 72 hrs by MTT assay; format: cell-based
[15] = (§1) Cytotoxicity against human LS174 cells assessed as decrease in cell survival after 72 hrs by MTT assay; format: functional, cell-based; conditions: LS174, 72 h
LS174 = assay: as §1; format: functional, cell-based
PC-3 [16] = assay: Cytotoxicity against human PC3 cells assessed as decrease in cell survival after 72 hrs by MTT assay; format: functional, cell-based; conditions: for IC50: PC-3, 72 h
MCF7 [17] = assay: Cytotoxicity against human MCF7 cells assessed as decrease in cell survival after 72 hrs by MTT assay; format: functional, cell-based; conditions: for IC50: MCF7, 72 h
K562 [18] = assay: Cytotoxicity against human K562 cells assessed as decrease in cell survival after 72 hrs by MTT assay; format: functional, cell-based; conditions: for IC50: K562, 72 h
[19] = (§2) Cytotoxicity against human Fem-X cells assessed as decrease in cell survival after 72 hrs by MTT assay; format: functional, cell-based
Fem-X = assay: as §2; format: functional, cell-based
HeLa [20] = assay: Cytotoxicity against human HeLa cells assessed as decrease in cell survival after 72 hrs by MTT assay; format: functional, cell-based

Row | Compound | Ratio IC50 [1] | Ratio IC50 [2] | Ratio IC50 (PC-3 [3]) | Ratio IC50 (PC-3 [4]) | Ratio IC50 (MCF7 [5]) | Ratio IC50 (MCF7 [6]) | Ratio IC50 (K562 [7]) | Ratio IC50 (K562 [8]) | Ratio IC50 [9] | Ratio IC50 [10] | Ratio IC50 (HeLa [11]) | Ratio IC50 (HeLa [12]) | IC50 (PBMC [13]) [µM] | IC50 (PBMC [14]) [µM] | IC50 ([15]; read-out: IC50) [µM] | IC50 ([15]; read-out: pIC50 (converted)) [µM] | Activity (LS174) | Activity (PC-3 [16]) | IC50 (PC-3 [16]; read-out: IC50) [µM] | IC50 (PC-3 [16]; read-out: pIC50 (converted)) [µM] | further results
1 | O=C(/C=C/c1ccccc1F)c1ccccc1O | 0.94 | 1.01 | 0.81 | 0.76 | 1.14 | 1.22 | 3.41 | 3.67 | 1.88 | 2.02 | 1.84 | 1.98 | 17.6 | 16.4 | 17.4 | 17.4 | Dose-dependent effect | Dose-dependent effect | 21.6 | 21.6 | Activity (MCF7 [17]): Dose-dependent effect; IC50 (MCF7 [17]; read-out: IC50): 14.4 µM; IC50 (MCF7 [17]; read-out: pIC50 (converted)): 14.4 µM; Activity (K562 [18]): Dose-dependent effect; IC50 (K562 [18]; read-out: IC50): 4.8 µM; IC50 (K562 [18]; read-out: pIC50 (converted)): 4.8 µM; IC50 ([19]; read-out: IC50): 8.7 µM; IC50 ([19]; read-out: pIC50 (converted)): 8.7 µM; Activity (Fem-X): Dose-dependent effect; Activity (HeLa [20]): Dose-dependent effect; IC50 (HeLa [20]; read-out: IC50): 8.9 µM; IC50 (HeLa [20]; read-out: pIC50 (converted)): 8.9 µM
2 | CCCNCC(O)COc1ccccc1C(=O)CCc1ccc(F)cc1.Cl (racemic) | 2.1 | 2.6 | 3.35 | 1.53 | 1.48 | 1.83 | 1.76 | 2.18 | 5.08 | 6.28 | 3.03 | 3.75 | 60.3 | 48.8 | 23.2 | 23.2 | Dose-dependent effect | Dose-dependent effect | 31.9 | 31.9 | Activity (MCF7 [17]): Dose-dependent effect; IC50 (MCF7 [17]; read-out: IC50): 33 µM; IC50 (MCF7 [17]; read-out: pIC50 (converted)): 33 µM; Activity (K562 [18]): Dose-dependent effect; IC50 (K562 [18]; read-out: IC50): 27.7 µM; IC50 (K562 [18]; read-out: pIC50 (converted)): 27.7 µM; IC50 ([19]; read-out: IC50): 9.6 µM; IC50 ([19]; read-out: pIC50 (converted)): 9.6 µM; Activity (Fem-X): Dose-dependent effect; Activity (HeLa [20]): Dose-dependent effect; IC50 (HeLa [20]; read-out: IC50): 16.1 µM; IC50 (HeLa [20]; read-out: pIC50 (converted)): 16.1 µM
3 | CCCNCC(O)COc1ccccc1C(=O)CCc1ccccc1F.Cl (racemic) | 0.67 | 0.66 | 1.02 | 1.04 | 2.6 | 2.57 | 1.28 | 1.26 | 1.26 | 1.24 | 2.93 | 2.89 | 47.5 | 48.1 | 72.2 | 72.2 | Dose-dependent effect | Dose-dependent effect | 46.4 | 46.4 | Activity (MCF7 [17]): Dose-dependent effect; IC50 (MCF7 [17]; read-out: IC50): 18.5 µM; IC50 (MCF7 [17]; read-out: pIC50 (converted)): 18.5 µM; Activity (K562 [18]): Dose-dependent effect; IC50 (K562 [18]; read-out: IC50): 37.6 µM; IC50 (K562 [18]; read-out: pIC50 (converted)): 37.6 µM; IC50 ([19]; read-out: IC50): 38.2 µM; IC50 ([19]; read-out: pIC50 (converted)): 38.2 µM; Activity (Fem-X): Dose-dependent effect; Activity (HeLa [20]): Dose-dependent effect; IC50 (HeLa [20]; read-out: IC50): 16.4 µM; IC50 (HeLa [20]; read-out: pIC50 (converted)): 16.4 µM

Source: ChEMBL document CHEMBL2375215, “Phenylpropiophenone derivatives as potential anticancer agents: synthesis, biological evaluation and quantitative structure-activity relationship study” (Eur J Med Chem, 2013)
